Test: xn = mol fraction of the nth substance listed
Details: Liquid

ClCCBr [1-bromo-2-chloroethane] + CCOC(C)=O
Details | mass density [kg/m3]
288.15 K, 101.33 kPa, x1 = 0.108 | 984.97
288.15 K, 101.33 kPa, x1 = 0.1985 | 1051.71
288.15 K, 101.33 kPa, x1 = 0.2997 | 1128.56
288.15 K, 101.33 kPa, x1 = 0.3988 | 1205.99
288.15 K, 101.33 kPa, x1 = 0.5008 | 1288.67
288.15 K, 101.33 kPa, x1 = 0.5477 | 1327.76
288.15 K, 101.33 kPa, x1 = 0.6462 | 1412.26
288.15 K, 101.33 kPa, x1 = 0.7653 | 1518.63
288.15 K, 101.33 kPa, x1 = 0.803 | 1553.45
288.15 K, 101.33 kPa, x1 = 0.905 | 1650.02
288.15 K, 101.33 kPa, x1 = 1 | 1744.36
298.15 K, 101.33 kPa, x1 = 0.108 | 972.55
298.15 K, 101.33 kPa, x1 = 0.1985 | 1039.06
298.15 K, 101.33 kPa, x1 = 0.2997 | 1115.49
298.15 K, 101.33 kPa, x1 = 0.3988 | 1192.41
298.15 K, 101.33 kPa, x1 = 0.5008 | 1274.57
298.15 K, 101.33 kPa, x1 = 0.5477 | 1313.32
298.15 K, 101.33 kPa, x1 = 0.6462 | 1397.28
298.15 K, 101.33 kPa, x1 = 0.7653 | 1503.13
298.15 K, 101.33 kPa, x1 = 0.803 | 1537.71
298.15 K, 101.33 kPa, x1 = 0.905 | 1634.03
298.15 K, 101.33 kPa, x1 = 1 | 1727.88
298.15 K, 200 kPa, x1 = 0.2995 | 1115.91
298.15 K, 200 kPa, x1 = 0.5013 | 1278.27
298.15 K, 200 kPa, x1 = 0.6994 | 1442.43
298.15 K, 500 kPa, x1 = 0.2995 | 1116.35
298.15 K, 600 kPa, x1 = 0.6994 | 1443.12
298.15 K, 700 kPa, x1 = 0.5013 | 1278.85
298.15 K, 1100 kPa, x1 = 0.6994 | 1443.6
298.15 K, 1200 kPa, x1 = 0.2995 | 1117.05
298.15 K, 1200 kPa, x1 = 0.5013 | 1279.48
298.15 K, 2100 kPa, x1 = 0.2995 | 1118.11
298.15 K, 2100 kPa, x1 = 0.5013 | 1280.34
298.15 K, 2100 kPa, x1 = 0.6994 | 1444.65
298.15 K, 2900 kPa, x1 = 0.6994 | 1445.74
298.15 K, 3000 kPa, x1 = 0.2995 | 1119.13
298.15 K, 3000 kPa, x1 = 0.5013 | 1281.5
298.15 K, 4000 kPa, x1 = 0.2995 | 1120.19
298.15 K, 4000 kPa, x1 = 0.5013 | 1282.56
298.15 K, 4100 kPa, x1 = 0.6994 | 1447.07
298.15 K, 5000 kPa, x1 = 0.2995 | 1121.32
298.15 K, 5000 kPa, x1 = 0.5013 | 1283.71
298.15 K, 5100 kPa, x1 = 0.6994 | 1448.15
298.15 K, 5800 kPa, x1 = 0.2995 | 1122.17
298.15 K, 5800 kPa, x1 = 0.6994 | 1448.98
298.15 K, 5900 kPa, x1 = 0.5013 | 1284.8
298.15 K, 7000 kPa, x1 = 0.5013 | 1285.84
298.15 K, 7000 kPa, x1 = 0.6994 | 1450.32
298.15 K, 7100 kPa, x1 = 0.2995 | 1123.21
298.15 K, 7700 kPa, x1 = 0.6994 | 1451.09
298.15 K, 7900 kPa, x1 = 0.2995 | 1124.37
298.15 K, 8000 kPa, x1 = 0.5013 | 1286.92
298.15 K, 8600 kPa, x1 = 0.2995 | 1125.17
298.15 K, 8700 kPa, x1 = 0.5013 | 1287.86
298.15 K, 8800 kPa, x1 = 0.6994 | 1452.5
298.15 K, 10100 kPa, x1 = 0.2995 | 1126.71
298.15 K, 10100 kPa, x1 = 0.5013 | 1289.28
298.15 K, 10300 kPa, x1 = 0.6994 | 1454.22
298.15 K, 11700 kPa, x1 = 0.2995 | 1128.38
298.15 K, 12000 kPa, x1 = 0.5013 | 1291.48
298.15 K, 12000 kPa, x1 = 0.6994 | 1456.29
298.15 K, 13700 kPa, x1 = 0.5013 | 1293.44
298.15 K, 13800 kPa, x1 = 0.2995 | 1130.67
298.15 K, 14000 kPa, x1 = 0.6994 | 1458.57
298.15 K, 15500 kPa, x1 = 0.5013 | 1295.42
298.15 K, 15900 kPa, x1 = 0.2995 | 1132.71
298.15 K, 15900 kPa, x1 = 0.6994 | 1460.86
298.15 K, 17400 kPa, x1 = 0.6994 | 1462.58
298.15 K, 17700 kPa, x1 = 0.2995 | 1134.48
298.15 K, 17900 kPa, x1 = 0.5013 | 1298.2
298.15 K, 19200 kPa, x1 = 0.6994 | 1464.86
298.15 K, 19700 kPa, x1 = 0.2995 | 1136.76
298.15 K, 19800 kPa, x1 = 0.5013 | 1300.25
308.15 K, 101.33 kPa, x1 = 0.108 | 959.03
308.15 K, 101.33 kPa, x1 = 0.1985 | 1024.94
308.15 K, 101.33 kPa, x1 = 0.2997 | 1100.59
308.15 K, 101.33 kPa, x1 = 0.3988 | 1177.02
308.15 K, 101.33 kPa, x1 = 0.5008 | 1258.55
308.15 K, 101.33 kPa, x1 = 0.5477 | 1296.96
308.15 K, 101.33 kPa, x1 = 0.6462 | 1380.36
308.15 K, 101.33 kPa, x1 = 0.7653 | 1485.56
308.15 K, 101.33 kPa, x1 = 0.803 | 1519.81
308.15 K, 101.33 kPa, x1 = 0.905 | 1615.55
308.15 K, 101.33 kPa, x1 = 1 | 1708.86
